Results: patent publication US10526345B2, “Compounds as GPR119 agonists” (Mankind Pharma Ltd., priority 2016, dated 2020)

Key:
[1] = system: Male SD rats; assay: Oral glucose tolerance test in Sprague-Dawley rats; assay type: in vivo; conditions: 3 mpk and 10 mpk, glucose 2 g/kg
Protocol: (§1) Male SD rats (8-10 weeks) were grouped based on basal glucose levels and animals were fasted for 16 hours. Glucose level of each animal was estimated in blood collected from tail vein before animals were dosed orally with 0.5% Tween 80 and 0.5% NaCMC (vehicle control) and compounds at 3 and 10 mpk (n=5). After 30 minutes of compound dosing, blood glucose was again estimated and 2 g/kg/10 ml (20%) of Glucose solution was administered orally to all the animals. Blood glucose was estimated at 15, 30, 60, 90 and 120 minutes time points after glucose administration. Accu-Check active blood glucose meter was utilised for estimation of blood from tail vein.
Glucose reduction observed in animals treated with GPR119 agonists is represented in terms of % AUC reduction. A greater glucose reduction in oral glucose tolerance test indicates the compound's efficacy in this rodent species.

[2] = system: Male C57BL/6 mice; assay: Oral glucose tolerance test in C57BL/6 mice; assay type: in vivo; conditions: 3 mpk and 10 mpk, glucose 2 g/kg
Protocol: as §1, with “C57BL/6 mice” for “SD rats”
Glucose reduction observed in animals treated with compounds of present invention is represented in terms of % AUC reduction. A greater glucose reduction in oral glucose tolerance test indicates the compound's efficacy in this rodent species.

[3] = biological target: T1, hGPR119 (Homo sapiens, UniProt Q8TDV5); assay: In vitro cyclic AMP assay (Cisbio dynamic 2 HTRF kit) in CHO-hGPR119 cells; assay type: cell-based; conditions: cAMP; for activation at 1 µM: 1 h, compound at 1 μM, 60 min, read-out: Induction (% induction at 1 μM)
T1 construct: expressed in transfected cells; host or cells: CHO
T1 sequence (Q8TDV5 1-335): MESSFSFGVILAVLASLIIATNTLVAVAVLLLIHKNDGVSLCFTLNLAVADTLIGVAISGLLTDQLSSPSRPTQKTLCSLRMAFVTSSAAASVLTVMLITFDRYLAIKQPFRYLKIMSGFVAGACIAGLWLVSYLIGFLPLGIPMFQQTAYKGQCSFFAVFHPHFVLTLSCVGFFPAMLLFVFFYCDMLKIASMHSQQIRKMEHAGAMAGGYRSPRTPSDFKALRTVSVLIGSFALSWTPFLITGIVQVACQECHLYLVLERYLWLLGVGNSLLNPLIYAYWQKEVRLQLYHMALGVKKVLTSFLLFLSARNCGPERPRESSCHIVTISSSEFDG

SMILES | glucose reduction (% AUC reduction) in oral glucose tolerance test [1] | glucose reduction (% AUC reduction) in oral glucose tolerance test [2] | activation at 1 µM [3] [%] | EC50 [3] [nM]
CC(C)c1noc(N2CCC([C@H](C)Oc3nc4ccc(-c5ccc(S(C)(=O)=O)nc5)nc4s3)CC2)n1 [Compound 1082, (S)-3-isopropyl-5-(4-(1-((5-(6-(methylsulfonyl)pyridin-3-yl)thiazolo[5,4-b]pyridin-2-yl)oxy)ethyl)piperidin-1-yl)-1,2,4-oxadiazole] | significant dose dependent glucose reduction | significant dose dependent glucose reduction | 82 | < 25
CCc1cnc(N2CCC([C@H](C)Oc3nc4ccc(-c5ccc(S(C)(=O)=O)nc5)nc4s3)CC2)nc1 [Compound 1106, (S)-2-(1-(1-(5-ethylpyrimidin-2-yl)piperidin-4-yl)ethoxy)-5-(6-(methylsulfonyl)pyridin-3-yl)thiazolo[5,4-b]pyridine] | significant dose dependent glucose reduction | significant dose dependent glucose reduction | 75 | < 25
CCc1cnc(N2CCC([C@H](C)Oc3nc4ccc(-c5cnc(Cl)nc5)nc4s3)CC2)nc1 [Compound 1135, 2-((S)-1-(1-(5-ethylpyrimidin-2-yl)piperidin-4-yl)ethoxy)-5-(2-chloropyrimidin-5-yl)thiazolo[5,4-b]pyridine] | significant dose dependent glucose reduction | significant dose dependent glucose reduction | 86 | < 25
CCc1cnc(N2CCC([C@H](C)Oc3nc4ccc(-c5ccnc(F)c5)nc4s3)CC2)nc1 [Compound 1104, (S)-2-(1-(1-(5-ethylpyrimidin-2-yl)piperidin-4-yl)ethoxy)-5-(2-fluoropyridin-4-yl)thiazolo[5,4-b]pyridine] | – | significant dose dependent glucose reduction | 84 | 25 to 50
CC(C)c1noc(N2CCC([C@@H](C)Oc3nc4ccc(-c5ccc(S(C)(=O)=O)cc5)nc4s3)CC2)n1 [Compound 1032, (R)-3-isopropyl-5-(4-(1-((5-(4-(methylsulfonyl)phenyl)thiazolo[5,4-b]pyridin-2-yl)oxy)ethyl)piperidin-1-yl)-1,2,4-oxadiazole] | – | – | 13 | –
COCc1cnc(N2CCC([C@@H](C)Oc3nc4ccc(-c5ccc(S(C)(=O)=O)nc5)nc4s3)CC2)nc1 [Compound 1165, 2-((R)-1-(1-(5-(methoxymethyl)pyrimidin-2-yl)piperidin-4-yl)ethoxy)-5-(6-(methylsulfonyl)pyridin-3-yl)thiazolo[5,4-b]pyridine] | – | – | 70 | –
CC(C)c1noc(N2CCC(COc3nc4ccc(-c5ccnc(F)c5)nc4s3)CC2)n1 [Compound 1086, 5-(4-(((5-(2-fluoropyridin-4-yl)thiazolo[5,4-b]pyridin-2-yl)oxy)methyl)piperidin-1-yl)-3-isopropyl-1,2,4-oxadiazole] | – | – | 2 | –
CC(C)c1noc(N2CCC(COc3nc4ccc(-c5ccncc5)nc4s3)CC2)n1 [Compound 1083, 3-isopropyl-5-(4-(((5-(pyridin-4-yl)thiazolo[5,4-b]pyridin-2-yl)oxy)methyl)piperidin-1-yl)-1,2,4-oxadiazole] | – | – | 14 | –
CC(Oc1nc2ccc(-c3ccc(S(C)(=O)=O)cc3)nc2s1)C1CCN(c2ncc(Cl)cn2)CC1 (stereo not drawn) [Compound 1120, 2-(1-(1-(5-chloropyrimidin-2-yl)piperidin-4-yl)ethoxy)-5-(4-(methylsulfonyl)phenyl)thiazolo[5,4-b]pyridine] | – | significant dose dependent glucose reduction | 40 | –
CC(C)c1noc(N2CCC(Oc3nc4ccc(Oc5ccc(S(C)(=O)=O)cc5)nc4s3)CC2)n1 [Compound 1005, 3-isopropyl-5-(4-((5-(4-(methylsulfonyl)phenoxy)thiazolo[5,4-b]pyridin-2-yl)oxy)piperidin-1-yl)-1,2,4-oxadiazole] | – | – | 6 | –
CCc1cnc(N2CCN(c3nc4ccc(Oc5ccc(S(C)(=O)=O)cc5)nc4s3)CC2)nc1 [Compound 1010, 2-(4-(5-ethylpyrimidin-2-yl)piperazin-1-yl)-5-(4-(methylsulfonyl)phenoxy)thiazolo[5,4-b]pyridine] | – | – | 8 | –
CC(C)c1nsc(N2CCC(C(C)Oc3nc4ccc(-c5ccc(S(C)(=O)=O)cc5)nc4s3)CC2)n1 (stereo not drawn) [Compound 1107, 2-(1-(1-(3-isopropyl-1,2,4-thiadiazol-5-yl)piperidin-4-yl)ethoxy)-5-(4-(methylsulfonyl)phenyl)thiazolo[5,4-b]pyridine] | – | – | 12 | –
CC(C)c1noc(C2CCN(c3nc4ccc(-c5ccc(S(C)(=O)=O)nc5)nc4s3)CC2)n1 [Compound 1080, 3-isopropyl-5-(1-(5-(6-(methylsulfonyl)pyridin-3-yl)thiazolo[5,4-b]pyridin-2-yl)piperidin-4-yl)-1,2,4-oxadiazole] | – | – | 40 | –
C=Cc1ccc(N2CCC(C(C)Oc3nc4ccc(-c5ccc(S(C)(=O)=O)cc5)nc4s3)CC2)nc1 (stereo not drawn) [Compound 1088, 5-(4-(methylsulfonyl)phenyl)-2-(1-(1-(5-vinylpyridin-2-yl)piperidin-4-yl)ethoxy)thiazolo[5,4-b]pyridine] | – | – | 60 | –
CC(C)c1noc(N2CCC(C(C)Oc3nc4ccc(-c5cc[nH]c(=O)c5)nc4s3)CC2)n1 (stereo not drawn) [Compound 1126, 4-(2-(1-(1-(3-isopropyl-1,2,4-oxadiazol-5-yl)piperidin-4-yl)ethoxy)thiazolo[5,4-b]pyridin-5-yl)pyridin-2(1H)-one] | – | – | 42 | –
CCCc1cnc(N2CCC([C@H](C)Oc3nc4ccc(-c5ccncc5)nc4s3)CC2)nc1 [Compound 1153, 2-((S)-1-(1-(5-propylpyrimidin-2-yl)piperidin-4-yl)ethoxy)-5-(pyridin-4-yl)thiazolo[5,4-b]pyridine] | – | – | 85 | 100 to 500
CC(C)c1noc(C2CCN(c3nc4ccc(-c5ccc(C(=O)N6CCOCC6)cc5)nc4s3)CC2)n1 [Compound 1029, (4-(2-(4-(3-isopropyl-1,2,4-oxadiazol-5-yl)piperidin-1-yl)thiazolo[5,4-b]pyridin-5-yl)phenyl)(morpholino)methanone] | – | – | 47 | –
CC(C)c1noc(N2CCC(C(C)Oc3nc4ccc(-c5ccc(-n6cnnn6)cc5)nc4s3)CC2)n1 (stereo not drawn) [Compound 1079, 5-(4-(1-((5-(4-(1H-tetrazol-1-yl)phenyl)thiazolo[5,4-b]pyridin-2-yl)oxy)ethyl)piperidin-1-yl)-3-isopropyl-1,2,4-oxadiazole] | – | – | 50 | –
CC(C)OC(=O)Oc1nc2ccc(-c3ccc(S(C)(=O)=O)cc3)nc2s1 [Compound 1019, isopropyl (5-(4-(methylsulfonyl)phenyl)thiazolo[5,4-b]pyridin-2-yl)carbonate] | – | – | 0 | –
CC(Oc1nc2ccc(-c3ccc(S(C)(=O)=O)cc3)nc2s1)C1CCN(c2nc(C3CC3)no2)CC1 (stereo not drawn) [Compound 1048, 3-cyclopropyl-5-(4-(1-((5-(4-(methylsulfonyl)phenyl)thiazolo[5,4-b]pyridin-2-yl)oxy)ethyl)piperidin-1-yl)-1,2,4-oxadiazole] | – | – | 57 | –
CC(C)c1noc(C2CCN(c3nc4ccc(-c5ccc(S(C)(=O)=O)cc5)nc4s3)C2)n1 (stereo not drawn) [Compound 1021, 3-isopropyl-5-(1-(5-(4-(methylsulfonyl)phenyl)thiazolo[5,4-b]pyridin-2-yl)pyrrolidin-3-yl)-1,2,4-oxadiazole] | – | – | 13 | –
Cc1nscc1-c1ccc2nc(OC(C)C3CCN(c4nc(C(C)C)no4)CC3)sc2n1 (stereo not drawn) [Compound 1125, 3-isopropyl-5-(4-(1-((5-(3-methylisothiazol-4-yl)thiazolo[5,4-b]pyridin-2-yl)oxy)ethyl)piperidin-1-yl)-1,2,4-oxadiazole] | – | – | 38 | –
CC(C)c1noc(C2CCN(c3nc4ccc(-c5ccncc5)nc4s3)CC2)n1 [Compound 1077, 3-isopropyl-5-(1-(5-(pyridin-4-yl)thiazolo[5,4-b]pyridin-2-yl)piperidin-4-yl)-1,2,4-oxadiazole] | – | – | 12 | –
